{"source": "patent US8809369B2", "about": "“Tetrahydroquinoline derivatives” (Hoffmann-La Roche Inc., priority 2011, dated 2014)", "key": {"[1]": {"test_system": "AMP-activated protein kinase (AMPK)", "experiment": "p-AMPK expression level in L6 cell line by Western blot", "type": "cell-based", "conditions": "L6 cells, 2 hours compound treatment", "description": "(§1) Evaluation of p-AMPK and p-ACC expression level in L6 cell line by Western-Blot\n(§2) This method evaluates the changes of AMP-activated protein kinase (AMPK) and ACC (acetyl-CoA carboxylase) activity by small molecular modulators through detecting the level of p-AMPK and p-ACC proteins in L6 cells using Western blot.\n(§3) L6 cells are maintained in DMEM medium supplemented with 10% FBS in 10-cm dishes. Prior to compounds treatment, L6 cells are seeded in 12-well-plates at concentration of 3×10^4 cells per well. After 24 hours of incubation in 12-well plates, L6 cells are differentiated by replacing the 10% FBS-DMEM medium with 2% FBS-DMEM. Differentiation usually takes 5 days, during which the culture medium is changed every 2 days.\n(§4) The compound concentrations typically range from 32 μM to 0.5 μM with 2-fold dilution in 2 ml DMEM and 7 doses. The final DMSO concentration is 0.4%. Berberine is used as a positive control at concentration of 16 μM. Before compound treatment, starve L6 cells for 2 hours by replacing the medium with DMEM, and then gently aspirate the media from each well. Add the compounds into the plates and incubate at 37 degree 5% CO2 for 2 hours.\n(§5) Prepare lysis buffer (RIPA buffer with protease-inhibitors and phosphorate-inhibitors) and place it on ice. After two hour's compound treatment, aspirate the medium from 12-well plates, add 70 ul lysis buffer to each well and keep the plates on ice for 5 min. Then scrape the cell lysate off the plates and transfer it to 1.5 ml eppendorf tubes. Keep the tube on ice for more 10 min, centrifugate the lysate at 13000 rpm, 4 degrees for 15 min and transfer the supernatant to clean tubes.\n(§6) Determine protein concentration for each sample using Quickstart Bradford protein quantitation kit. Mix 20 ug protein sample with 4 times loading buffer, heat them at 100° C. for 5 min, store the sample in −80° C. or perform Western blot assay directly. For Western blot assay, load 20 ug samples and 10 ul Pre-stained Protein Maker into 4-12% SDS-PAGE gradient gel. Run the samples at 100 V in the stacking gel and at 120 V in resolving gel until the Bromophenol dye reaches the bottom. Transfer the electrophoresed proteins to a PVDF membrane using Bio-Rad's Transblot for 120 min at 300 mA. Following the completion of transfer, the membrane is blocked with 5% non-fat milk for 2 hours at room temperature before incubated with primary antibody (p-AMPK and p-ACC) at 4° C. overnight. On the next day wash the membrane twice with TBST, add secondary antibody and incubate for 1 hour at room temperature. Wash the membrane twice with TBST. Develop p-AMPK and p-ACC protein expression level on the film in dark room with Amersham ECL plus kit. The bands of each sample are quantitated by Bio-Rad system, The AC1.3 value is analyzed using Prism 5.0."}, "[2]": {"test_system": "ACC (acetyl-CoA carboxylase)", "experiment": "p-ACC expression level in L6 cell line by Western blot", "type": "cell-based", "conditions": "Rattus norvegicus, L6 cells, 2 hours compound treatment, read-out: Activity AC1.3 (ACCp)", "description": "as §1, §2, §3, §4, §5, §6"}}, "data": [{"smiles": "CC1(C)CC(c2cc(F)cc(N3CCOCC3)c2)Nc2ccc(C(=O)NS(C)(=O)=O)cc21", "note": "(stereo not drawn) [Example 4, N-[2-(3-fluoro-5-morpholin-4-yl-phenyl)-4,4-dimethyl-1,2,3,4-tetrahydro-quinoline-6-carbonyl]-methanesulfonamide]", "values": [{"measurement": "Activity AC1.3 (AMPKp)", "setting": "[1]", "result": 6.76, "unit": "µM"}, {"measurement": "EC (1.3-fold)", "setting": "[2]", "result": 6.23, "unit": "µM"}]}, {"smiles": "CC1(C)CC(c2cccc(N3CCOCC3)c2)Nc2ccc(S(=O)(=O)N3CCOCC3)cc21", "note": "(stereo not drawn) [Example 12, 4,4-Dimethyl-6-(morpholine-4-sulfonyl)-2-(3-morpholin-4-yl-phenyl)-1,2,3,4-tetrahydro-quinoline]", "values": [{"measurement": "Activity AC1.3 (AMPKp)", "setting": "[1]", "result": 5.70, "unit": "µM"}, {"measurement": "EC (1.3-fold)", "setting": "[2]", "result": 1.86, "unit": "µM"}]}, {"smiles": "CC1(C)CC(c2cccc(N3CCOCC3)c2)Nc2ccc(S(=O)(=O)NC3CCC3)cc21", "note": "(stereo not drawn) [Example 15, 4,4-Dimethyl-2-(3-morpholin-4-yl-phenyl)-1,2,3,4-tetrahydro-quinoline-6-sulfonic acid cyclobutylamide]", "values": [{"measurement": "Activity AC1.3 (AMPKp)", "setting": "[1]", "result": 0.1, "unit": "µM"}, {"measurement": "EC (1.3-fold)", "setting": "[2]", "result": 0.1, "unit": "µM"}]}, {"smiles": "CC1(C)CC(c2cc(F)cc(N3CCOCC3)c2)Nc2ccc(S(=O)(=O)NC3CCC3)cc21", "note": "(stereo not drawn) [Example 16, 2-(3-Fluoro-5-morpholin-4-yl-phenyl)-4,4-dimethyl-1,2,3,4-tetrahydro-quinoline-6-sulfonic acid cyclobutylamide]", "values": [{"measurement": "Activity AC1.3 (AMPKp)", "setting": "[1]", "result": 19.4, "unit": "µM"}, {"measurement": "EC (1.3-fold)", "setting": "[2]", "result": 3.21, "unit": "µM"}]}, {"smiles": "CC1(C)CC(c2cccc(-c3ccccc3O)c2)Nc2ccc(S(=O)(=O)NC3CCC3)cc21", "note": "(stereo not drawn) [Example 17, 2-(2′-Hydroxy-biphenyl-3-yl)-4,4-dimethyl-1,2,3,4-tetrahydro-quinoline-6-sulfonic acid cyclobutylamide]", "values": [{"measurement": "Activity AC1.3 (AMPKp)", "setting": "[1]", "result": 0.41, "unit": "µM"}, {"measurement": "EC (1.3-fold)", "setting": "[2]", "result": 0.05, "unit": "µM"}]}, {"smiles": "CC1(C)CC(c2cccnc2)Nc2ccc(C(=O)NS(C)(=O)=O)cc21", "note": "(stereo not drawn) [Example 18, N-(4,4-dimethyl-2-pyridin-3-yl-1,2,3,4-tetrahydro-quinoline-6-carbonyl)-methanesulfonamide]", "values": [{"measurement": "Activity AC1.3 (AMPKp)", "setting": "[1]", "result": 7.98, "unit": "µM"}, {"measurement": "EC (1.3-fold)", "setting": "[2]", "result": 20, "unit": "µM"}]}, {"smiles": "Cc1ccc(N2CCOCC2)cc1C1CC(C)(C)c2cc(C(=O)NS(C)(=O)=O)ccc2N1", "note": "(stereo not drawn) [Example 22, N-[4,4-dimethyl-2-(2-methyl-5-morpholin-4-yl-phenyl)-1,2,3,4-tetrahydro-quinoline-6-carbonyl]-methanesulfonamide]", "values": [{"measurement": "Activity AC1.3 (AMPKp)", "setting": "[1]", "result": 0.02, "unit": "µM"}, {"measurement": "EC (1.3-fold)", "setting": "[2]", "result": 0.16, "unit": "µM"}]}, {"smiles": "CC(C)(C)c1ccc(-c2cccc(C3CC(C)(C)c4cc(C(=O)NS(=O)(=O)C5CC5)ccc4N3)c2)cc1", "note": "(stereo not drawn) [Example 40, Cyclopropanesulfonic acid [2-(4′-tert-butyl-biphenyl-3-yl)-4,4-dimethyl-1,2,3,4-tetrahydro-quinoline-6-carbonyl]-amide]", "values": [{"measurement": "Activity AC1.3 (AMPKp)", "setting": "[1]", "result": 6.6, "unit": "µM"}, {"measurement": "EC (1.3-fold)", "setting": "[2]", "result": 6.17, "unit": "µM"}]}, {"smiles": "Cc1ccc(N2CCN(c3cncc(C4CC(C)(C)c5cc(C(=O)NS(C)(=O)=O)ccc5N4)c3)CC2)c(C)c1", "note": "(stereo not drawn) [Example 49, N-(2-{5-[4-(2,4-dimethyl-phenyl)-piperazin-1-yl]-pyridin-3-yl}-4,4-dimethyl-1,2,3,4-tetrahydro-quinoline-6-carbonyl)-methanesulfonamide]", "values": [{"measurement": "Activity AC1.3 (AMPKp)", "setting": "[1]", "result": 0.15, "unit": "µM"}, {"measurement": "EC (1.3-fold)", "setting": "[2]", "result": 6.93, "unit": "µM"}]}, {"smiles": "Cc1ccc(N2CCN(c3cccc(C4CC(C)(C)c5cc(C(=O)NS(C)(=O)=O)ccc5N4)c3)CC2)c(C)c1", "note": "(stereo not drawn) [Example 53, N-(2-{3-[4-(2,4-dimethyl-phenyl)-piperazin-1-yl]-phenyl}-4,4-dimethyl-1,2,3,4-tetrahydro-quinoline-6-carbonyl)-methanesulfonamide]", "values": [{"measurement": "Activity AC1.3 (AMPKp)", "setting": "[1]", "result": 4.79, "unit": "µM"}, {"measurement": "EC (1.3-fold)", "setting": "[2]", "result": 11.7, "unit": "µM"}]}, {"smiles": "Cc1ccccc1N1CCN(c2cccc(C3CC(C)(C)c4cc(F)cc(C(=O)NS(C)(=O)=O)c4N3)c2)CC1", "note": "(stereo not drawn) [Example 57, N-{6-fluoro-4,4-dimethyl-2-[3-(4-o-tolyl-piperazin-1-yl)-phenyl]-1,2,3,4-tetrahydro-quinoline-8-carbonyl}-methanesulfonamide]", "values": [{"measurement": "Activity AC1.3 (AMPKp)", "setting": "[1]", "result": 0.85, "unit": "µM"}, {"measurement": "EC (1.3-fold)", "setting": "[2]", "result": 0.61, "unit": "µM"}]}, {"smiles": "Cc1ccccc1N1CCN(c2cccc(C3CC(C)(C)c4cc(F)cc(C(=O)NS(=O)(=O)C5CC5)c4N3)c2)CC1", "note": "(stereo not drawn) [Example 58, Cyclopropanesulfonic acid {6-fluoro-4,4-dimethyl-2-[3-(4-o-tolyl-piperazin-1-yl)-phenyl]-1,2,3,4-tetrahydro-quinoline-8-carbonyl}-amide]", "values": [{"measurement": "Activity AC1.3 (AMPKp)", "setting": "[1]", "result": 0.46, "unit": "µM"}, {"measurement": "EC (1.3-fold)", "setting": "[2]", "result": 0.36, "unit": "µM"}]}, {"smiles": "CC1(C)CC(c2cccc(N3CCN(c4ccccc4F)CC3)c2)Nc2c(C(=O)NS(C)(=O)=O)cc(F)cc21", "note": "(stereo not drawn) [Example 59, N-(6-fluoro-2-{3-[4-(2-fluoro-phenyl)-piperazin-1-yl]-phenyl}-4,4-dimethyl-1,2,3,4-tetrahydro-quinoline-8-carbonyl)-methanesulfonamide]", "values": [{"measurement": "Activity AC1.3 (AMPKp)", "setting": "[1]", "result": 7.73, "unit": "µM"}, {"measurement": "EC (1.3-fold)", "setting": "[2]", "result": 0.74, "unit": "µM"}]}, {"smiles": "CC1(C)CC(c2cccc(N3CCCC3)c2)Nc2c(C(=O)NS(=O)(=O)C3CC3)cc(Cl)cc21", "note": "(stereo not drawn) [Example 72, Cyclopropanesulfonic acid [6-chloro-4,4-dimethyl-2-(3-pyrrolidin-1-yl-phenyl)-1,2,3,4-tetrahydro-quinoline-8-carbonyl]-amide]", "values": [{"measurement": "Activity AC1.3 (AMPKp)", "setting": "[1]", "result": 0.14, "unit": "µM"}, {"measurement": "EC (1.3-fold)", "setting": "[2]", "result": 3.49, "unit": "µM"}]}, {"smiles": "CC(C)(C)c1ccc(-c2cncc(C3CC(C)(C)c4cc(C(=O)NS(=O)(=O)C5CC5)ccc4N3)c2)cc1", "note": "(stereo not drawn) [Example 74, Cyclopropanesulfonic acid {2-[5-(4-tert-butyl-phenyl)-pyridin-3-yl]-4,4-dimethyl-1,2,3,4-tetrahydro-quinoline-6-carbonyl}-amide]", "values": [{"measurement": "Activity AC1.3 (AMPKp)", "setting": "[1]", "result": 0.06, "unit": "µM"}, {"measurement": "EC (1.3-fold)", "setting": "[2]", "result": 1.67, "unit": "µM"}]}, {"smiles": "CN(C(=O)c1ccc2c(c1)C(C)(C)CC(c1cccc(N3CCOCC3)c1)N2)S(=O)(=O)C1CC1", "note": "(stereo not drawn) [Example 75, Cyclopropanesulfonic acid [4,4-dimethyl-2-(3-morpholin-4-yl-phenyl)-1,2,3,4-tetrahydro-quinoline-6-carbonyl]-methyl-amide]", "values": [{"measurement": "EC (1.3-fold)", "setting": "[2]", "result": 0.3, "unit": "µM"}]}, {"smiles": "CC1(C)CC(c2cccc(N3CCN(c4ccccc4)CC3)c2)Nc2c(C(=O)NS(=O)(=O)C3CC3)cccc21", "note": "(stereo not drawn) [Example 76, Cyclopropanesulfonic acid {4,4-dimethyl-2-[3-(4-phenyl-piperazin-1-yl)-phenyl]-1,2,3,4-tetrahydro-quinoline-8-carbonyl}-amide]", "values": [{"measurement": "Activity AC1.3 (AMPKp)", "setting": "[1]", "result": 3.12, "unit": "µM"}, {"measurement": "EC (1.3-fold)", "setting": "[2]", "result": 0.57, "unit": "µM"}]}]}
